Tests used:
[1] = system: Letal mRNA in A2008 ovarian carcinoma cell line; assay: Letal mRNA expression in treated A2008 cells, real-time quantitative RT-PCR (TaqMan); format: cell-based, human
Method: Quantification of Letal by real-time quantitative RT-PCR. Letal expression was analyzed by TaqMan analysis as previously described (Garcia et al, FASEB J 15(10):1819-1821 (2001)). The Letal system consisted of the primers: Letal.F, 5′-[…]-3′ (SEQ ID NO:13); Letal.R, 5′-[…]-3′ (SEQ ID NO:14), and the probe Letal.P, 5′-(FAM)[…] (SEQ ID NO:15) (TAMRA)-3′. The cDNA load was normalized to human GAPDH with primers GAPDH F: 5′-[…]-3′ (SEQ ID NO:16) and GAPDH R: 5′[…]-3′ (SEQ ID NO:17) and the probe GAPDH.P: 5′(FAM) […] (TAMRA)-3′ (SEQ ID NO:18).
Tissues, cell lines and purification of cells. Normal human tissues were obtained from the Cooperative Human Tissue Network (Zhang et al, N. Engl. J. Med. 348(3):203-213 (2003)). A2008 ovarian carcinoma cell line was treated for 24 h with serum-free medium (control) or serum-free medium containing either 10 U/ml interleukin (IL)-1β, 10 ng/ml tumor necrosis factor (TNF-α), 40 ng/ml interferon (IFNγ), 0.5 μg/ml Lypopolyssaccaride (LPS), or 10 ng/ml TNF-α plus 40 ng/ml IFN-γ. 10 ng/ml PMA was kept for 4 hs and retinoic acid for 24, 48, and 72 hs. All the cytokines were from Peprotech (Rocky Hill, N.J.), except retinoic acid (Sigma, St Louis, Mo.). Additionally, cells were cultured in media without glucose for 48 hs or under hypoxia (1.5% O2) for 16 hs. Fresh peripheral blood lymphocytes were obtained by leukapheresis and elutriation. […]

peripheral CD8^+ T-cells [2] = assay: Glucose uptake with [3H]-2-deoxyglucose in stimulated CD8+ T-cells; format: cell-based, human; settings: 20 hr stimulation
Text: (§1) CD8^+ lymphocyte stimulation, cytokine release and glucose metabolism analysis. To analyze the effects of Letal on the T-cell proliferation and production of cytokines, a previously described artificial antigen-presenting cell (aAPC) model was used (Maus et al, Nat. Biotechnol. 20:143-148 (2002)). Briefly, the system is based on the stable expression of the human low-affinity Fcγ receptor, CD32, on K562 cells (K32 cell line). K32 cell-based aAPCs were additionally transduced with Letal or with the empty vector as described above, irradiated with 100Gy, and washed twice with RPMI medium. Letal^+-K32 cells or mock transductants were loaded, when indicated, with anti-CD3 (OKT3), or anti-CD3 plus anti-CD28 (mAbs; 9.3) monoclonal antibodies at 0.5 μg/ml for 10 min at room temperature. Loaded aAPCs were mixed with CD8^+ T-cells at a 1:2 ratio and the T-cell concentration was maintained at 0.5×10^6 cells/ml throughout the culture. Cultures were pulsed with 1 μCi of [^3H] thymidine from day 2 to day 5 and incorporated radioactivity was determined using a 1450 Microbeta scintillation counter (Wallac, Turku, Finland). The amounts of secreted IL-2 and IFN-γ were determined by commercial ELISA, following the manufacturer's instructions (R & D Systems). […]
Glucose uptake rates were next measured with [^3H]-2-deoxyglucose in cells stimulated as described above. […]

peripheral CD8^+ T-cells [3] = assay: Cisplatin-induced apoptosis of pre-stimulated CD8+ lymphocytes, annexin-V; format: cell-based, human; settings: pre-stimulated 3 days; 50 μM cisplatin for 17 hr
Method: (§2) Apoptosis assay. The percentage of apoptotic cells was determined after 17 h incubation with 50 μM cisplatin or 18 hs exposure to 0.1 μg/ml anti-CD95 mAb (EOS9.1; Pharmingen) by using the TACS annexin-V apoptosis detection kit, according to the manufacturer's instructions (R & D Systems). Fas expression was determined by flow cytometry by using EOS9.1 as a primary Ab and a PE-labeled anti-mouse IgM (R6-60.2; Pharmingen) as a second Ab.
Cytotoxic chemotherapy can, however, deplete tumor-specific effector T-cells (Lee et al, Nat. Med. 5:677-685 (1999)). Because the glycolytic pathway is implicated in lymphocyte survival (Plas et al, Nat. Immunol. 3:515-521 (2002)), a determination was made as to whether Letal could protect T-cells from early apoptotic death induced by genotoxic drugs.

[4] = system: glucose transporter Glut-1 in peripheral CD8^+ T-cells; assay: Glut-1 expression in stimulated CD8+ T-cells, flow cytometry; format: cell-based, human; settings: 20 hr stimulation
Text: as §1, with “Letal^+-K32 cells or mock transductants were loaded, when indicated, with anti-CD3 (OKT3), or anti-CD3 plus anti-CD28 (mAbs; 9.3) monoclonal antibodies at 0.5 μg/ml for 10 min at room temperature. Loaded aAPCs were mixed with CD8^+ T-cells at a 1:2 ratio and the T-cell concentration was maintained at 0.5×10^6 cells/ml throughout the culture.” left out
Letal signaling increases glucose transporter expression and glucose uptake during T-cell activation. […] To test whether Letal may have a similar effect during T-cell activation, peripheral CD8^+ T-cells were stimulated for 20 hr with anti-CD3, anti-CD3/anti-CD28, anti-CD3/Letal, or Letal alone and the expression of the glucose transporter Glut-1 was analyzed by flow cytometry. […]

[5] = system: Fas on peripheral CD8^+ T-cells; assay: Fas expression on stimulated CD8+ T-cells, flow cytometry; format: cell-based, human; settings: 4 days stimulation; compared to CD3/CD28 costimulated T-cells
Method: as §2
Letal engagement protects CD8^+ T-cells from FasL-induced apoptosis. […] Because ovarian carcinomas express FasL and other lymphocyte-depleting death ligands (Rabinowich et al, J. Clin. Invest. 101:2579-2588 (1998)), the prevalence of FasL expression and its impact on TILs was determined in 42 stage III ovarian carcinoma specimens. Strong FasL immunoreactivity was detected in tumor cells in areas of selected specimens (FIG. 10A), as well as in a proportion of stromal leukocytes. To test whether Letal promotes the generation of activated T-cell subpopulations that are able to resist the pro-apoptotic tumor microenvironment, peripheral CD8^+ T-cells were stimulated for 4 days with CD3/Letal, CD3/CD28, or anti-CD3 alone, and expression of Fas was measured by flow cytometry. […]

[6] = system: NKG2D on peripheral CD8^+ T-cells; assay: NKG2D expression on CD8+ lymphocytes after co-culture with K32 aAPCs, flow cytometry; format: cell-based, human; settings: peripheral CD8^+ T-cells co-cultured 4 days with K32 aAPCs; versus mock-transduced K32
Text: as §1, with “lymphocyte stimulation and” for “lymphocyte stimulation,”, “cytokine release.” for “cytokine release and glucose metabolism analysis.”, “Biotechnol. 20(2):143-148” for “Biotechnol. 20:143-148”, “Loaded &APCs” for “Loaded aAPCs”, “and IFNγ” for “and IFN-γ”, “Systems). Flow cytometry was performed with a FACScalibur (BD Biosciences, San Jose, Calif.).” for “Systems).”

peripheral CD8^+ T-cells [7] = assay: CD8+ lymphocyte proliferation/expansion with K32 aAPCs ([3H] thymidine); format: cell-based, human; settings: day 5; three independent experiments
Text: as §1, with “lymphocyte stimulation and” for “lymphocyte stimulation,”, “cytokine release.” for “cytokine release and glucose metabolism analysis.”, “Biotechnol. 20(2):143-148” for “Biotechnol. 20:143-148”, “Loaded &APCs” for “Loaded aAPCs”, “and IFNγ” for “and IFN-γ”, “Systems). Flow cytometry was performed with a FACScalibur (BD Biosciences, San Jose, Calif.).” for “Systems).”

[8] = biological target: T1, Lymphocyte Effector cell Toxicity Activating Ligand (Letal) (human, UniProt Q8TD07 29-263); assay: flow cytometry, 3 µg/ml NKG2D/Fc on Letal-transduced K562 and SKOV3 cells, detected with anti-human IgG mAb
T1 construct: Expressed from the complete open reading frame by retroviral transduction on K562 and SKOV3 cells; also called ULBP4; RAET1E
T1 sequence: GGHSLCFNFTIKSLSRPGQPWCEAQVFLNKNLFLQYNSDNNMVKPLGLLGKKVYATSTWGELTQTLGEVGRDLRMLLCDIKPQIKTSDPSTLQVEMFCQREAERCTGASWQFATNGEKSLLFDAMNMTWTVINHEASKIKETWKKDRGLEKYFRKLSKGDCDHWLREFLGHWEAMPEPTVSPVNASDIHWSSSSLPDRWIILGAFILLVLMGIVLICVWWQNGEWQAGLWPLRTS
Text: Constructs and generation of antibodies. SKOV3 and K562 cells were transduced using retroviral vector MIGR1, generously provided by Warren Pear (University of Pennsylvania). Letal or mock transductants expressing equivalent levels of the green fluorescent protein were sorted and cultured by standard procedures. […] Anti-human IgG mAb (G18-145; Pharmingen, San Diego, Calif.) was used to detect the chimerical molecule.
Letal is a ligand of NKG2D expressed in a variety of normal tissues. […] Expression of the Letal protein was confirmed on transduced cells, but not on mocked transductants, by flow cytometry using serum of Letal-immunized mice (FIG. 1D). […] To evaluate the binding of NKG2D to transduced Letal, a recombinant soluble NKG2D-Fc fusion protein was used, containing the ectodomain of the immunoreceptor (Phe78 through Val216). […] Treatment with phospholipase C decreased binding of sNKG2D to Letal⁺ K562 cells, although binding was higher than to control cells.

## CC1=C(/C=C/C(C)=C/C=C/C(C)=C/C(=O)O)C(C)(C)CCC1 [retinoic acid]
[1]; maximum, after 72 hr stimulation
  decrease of Letal mRNA expression: 6 fold

## TNF-α
[1]; TNF-α 10 ng/ml, 24 h
  increase of basal Letal mRNA levels: 3 fold

## anti-CD3: anti-CD3 (OKT3) monoclonal antibody loaded on Letal^− K32 aAPCs [reference compound]
Peripheral CD8^+ T-cells [2]
  glucose uptake rate: little to no effect
Peripheral CD8^+ T-cells [3]
  apoptosis after cisplatin: higher percentage of apoptotic cells
[4]
  cells with altered Glut-1 expression: 11%
[5]
  Fas expression: markedly higher
[6]
  increase of NKG2D expression: same result than CD3/Letal stimulation
Peripheral CD8^+ T-cells [7]
  fewer CD8^+ cells with CD3 stimulation in the absence of Letal: 29%

B1: recombinant human NKG2D/Fc chimera (R & D Systems) (Fc fusion, UniProt P26718 78-216, looked up)
chain: FLNSLFNQEVQIPLTESYCGPCPKNWICYKNNCYQFFDESKNWYESQASCMSQNASLLKVYSKEDQDLLKLVKSYHWMGLVHIPTNGSWQWEDGSILSPNLLTIIEMQKGDCALYASSFKGYIENCSTPNTYICMQRTV
notes: range 78-216; Bought reagent; also called NKG2D-Fc protein; recombinant soluble NKG2D-Fc fusion protein; Fc part of the bought chimera not given, detected with anti-human IgG mAb
[8]
  binding result: binds
